In US10640520B2, “Boronic acid derivatives” (MERCK PATENT GMBH, priority 2014, dated 2020):

How the values were obtained:
Beta5 = Beta5 (Homo sapiens, UniProt P20618+P28074); experiment: Determination of Beta5 activity (fluorescence intensity assay, Suc-LLVY-AMC); format: biochemical; details: incubation for 20 minutes; for IC50: purified human constitutive proteasome
Experimental: Determination of Beta5 Activity:
Measurement of Beta5 inhibition is performed in 384 well format based on fluorescence intensity assay.
(§1) Purified human constitutive proteasome (1.25 nM) and serial diluted compounds in DMSO (range of concentrations from 30 μM to 15 μM) or controls are incubated for 20 minutes or 120 minutes (long incubation) at 25° C. in assay buffer containing 50 mM Tris pH 7.4, 0.03% SDS, 1 mM EDTA and 1% DMSO. The reaction is initiated by the addition of the fluorogenic peptide substrate, Suc-LLVY-AMC (Bachem 1-1395), at a concentration of 40 μM. After 60 minutes of incubation at 37° C., fluorescence intensity is measured at λex=350 nm and λem=450 nm with a fluorescence reader (Perkin Elmer Envision reader or equivalent).
(§2) Unless indicated otherwise the results are obtained after incubation for 20 minutes.

LMP7 = LMP7 (Homo sapiens, UniProt P20618+P28062); experiment: Determination of LMP7 activity (fluorescence intensity assay, Suc-LLVY-AMC); format: biochemical; details: purified human immunoproteasome, incubation for 20 minutes
Experimental: Determination of LMP7 Activity:
Measurement of LMP7 inhibition is performed in 384 well format based on fluorescence intensity assay.
as §1, with “immunoproteasome (0.25” for “constitutive proteasome (1.25”, “pM)” for “μM)”
as §2

Structure (SMILES)	Selectivity LMP7 vs Beta5 (Beta5)	IC50 (Beta5) [nM]	IC50 (LMP7) [nM]
CCc1cccc(C[C@H](NC(=O)CCCN2CCOC2=O)B(O)O)c1 [Compound 1, [(1R)-2-(3-ethylphenyl)-1-[4-(2-oxooxazolidin-3-yl)butanoylamino]-ethyl]boronic acid]	++ (10 ≤ Selectivity < 30)	> 5000	50 to 500
O=C(CCN1CCCC1=O)N[C@H](Cc1ccccc1)B(O)O [Compound 2, [(1S)-1-[3-(2-oxopyrrolidin-1-yl)propaqanoylamino]-2-phenyl-ethyl]-boronic acid]	+++ (30 ≤ Selectivity < 50)	500 to 5000	< 50
O=C(CCN1CCCCC1=O)N[C@H](Cc1ccccc1)B(O)O [Compound 3, [(1S)-1-[3-(2-oxo-1-piperidyl)propanoylamino]-2-phenyl-ethyl]boronic acid]	+++ (30 ≤ Selectivity < 50)	500 to 5000	50 to 500
Cc1ccc(C[C@H](NC(=O)CCN2CCCC2=O)B(O)O)cc1 [Compound 4, [(1R)-1-[3-(2-oxopyrrolidin-1-yl)propanoylamino]-2-(p-tolyl)ethyl]-boronic acid]	++ (10 ≤ Selectivity < 30)	50 to 500	< 50
O=C(CCN1C(=O)CCCC1=O)N[C@@H](Cc1ccccc1)B(O)O [Compound 5, [(1R)-1-[3-(2,6-dioxo-1-piperidyl)propanoylamino]-2-phenyl-ethyl]-boronic acid]	+++ (30 ≤ Selectivity < 50)	> 5000	500 to 5000
O=C(CCN1CCCC1=O)N[C@@H](Cc1ccc2ccccc2c1)B(O)O [Compound 6, [(1R)-2-(2-naphthyl)-1-[3-(2-oxopyrrolidin-1-yl)propanoylamino]-ethyl]boronic acid]	++ (10 ≤ Selectivity < 30)	50 to 500	< 50
O=C(CCN1CCCCC1=O)N[C@@H](Cc1ccc2ccccc2c1)B(O)O [Compound 7, [(1R)-2-(2-naphthyl)-1-[3-(2-oxo-1-piperidyl)propanoylamino]ethyl]-boronic acid]	++ (10 ≤ Selectivity < 30)	50 to 500	< 50
O=C(CCN1CCCC1=O)N[C@@H](Cc1ccc2c(c1)OCCO2)B(O)O [Compound 8, [(1R)-2-(2,3-dihydro-1,4-benzodioxin-6-yl)-1-[3-(2-oxopyrrolidin-1-yl)propanoylamino]ethyl]boronic acid]	+++ (30 ≤ Selectivity < 50)	500 to 5000	< 50
Cc1ccc(C[C@H](NC(=O)CCN2CCCCC2=O)B(O)O)cc1 [Compound 9, [(1R)-1-[3-(2-oxo-1-piperidyl)propanoylamino]-2-(p-tolyl)ethyl]boronic acid]	++ (10 ≤ Selectivity < 30)	500 to 5000	< 50
O=C(CCN1CCCC1=O)N[C@@H](Cc1cccc2ccccc12)B(O)O [Compound 10, [(1R)-2-(1-naphthyl)-1-[3-(2-oxopyrrolidin-1-yl)propanoylamino]ethyl]-boronic acid]	++ (10 ≤ Selectivity < 30)	500 to 5000	50 to 500
O=C(CCN1CCCCC1=O)N[C@@H](Cc1cccc2ccccc12)B(O)O [Compound 11, [(1R)-2-(1-naphthyl)-1-[3-(2-oxo-1-piperidyl)propanoylamino]ethyl]-boronic acid]	+++ (30 ≤ Selectivity < 50)	500 to 5000	50 to 500
O=C(CCN1CC(c2ccccc2)CC1=O)N[C@@H](Cc1ccccc1)B(O)O (stereo partly drawn) [Compound 12, [(1R)-1-[3-(2-oxo-4-phenyl-pyrrolidin-1-yl)propanoylamino]-2-phenyl-ethyl]boronic acid]	++ (10 ≤ Selectivity < 30)	50 to 500	< 50
O=C(CCN1CCCCCC1=O)N[C@@H](Cc1ccccc1)B(O)O [Compound 13, [(1R)-1-[3-(2-oxoazepan-1-yl)propanoylamino]-2-phenyl-ethyl]boronic acid]	++ (10 ≤ Selectivity < 30)	500 to 5000	50 to 500
O=C(CCN1CCN(c2ccccc2)C1=O)N[C@@H](Cc1ccc(F)cc1)B(O)O [Compound 14, [(1R)-2-(4-fluorophenyl)-1-[3-(2-oxo-3-phenyl-imidazolidin-1-yl)propanoylamino]ethyl]boronic acid]	++ (10 ≤ Selectivity < 30)	50 to 500	< 50
Cc1ccc(C[C@H](NC(=O)CCN2CCN(c3ccccc3)C2=O)B(O)O)cc1 [Compound 15, [(1R)-1-[3-(2-oxo-3-phenyl-imidazolidin-1-yl)propanoylamino]-2-(p-tolyl)ethyl]boronic acid]	++ (10 ≤ Selectivity < 30)	50 to 500	< 50
Cc1ccc(C[C@H](NC(=O)CCN2CCCC2=O)B(O)O)cc1C [Compound 16, [(1R)-2-(3,4-dimethylphenyl)-1-[3-(2-oxopyrrolidin-1-yl)propanoylamino]ethyl]boronic acid]	+++++ (Selectivity ≥ 70)	500 to 5000	< 50
Cc1ccc(C[C@H](NC(=O)CCN2CCC(C)(C)C2=O)B(O)O)cc1 [Compound 17, [(1R)-1-[3-(3,3-dimethyl-2-oxo-pyrrolidin-1-yl)propanoylamino]-2-(p-tolyl)ethyl]boronic acid]	++ (10 ≤ Selectivity < 30)	50 to 500	< 50
Cc1ccc(C[C@H](NC(=O)CCN2C(=O)CCC2(C)C)B(O)O)cc1 [Compound 18, [(1R)-1-[3-(2,2-dimethyl-5-oxo-pyrrolidin-1-yl)propanoylamino]-2-(p-tolyl)ethyl]boronic acid]	+++ (30 ≤ Selectivity < 50)	500 to 5000	50 to 500
O=C(CCN1CCCC1=O)N[C@@H](Cc1coc2ccccc12)B(O)O [Compound 19, [(1R)-2-(benzofuran-3-yl)-1-[3-(2-oxopyrrolidin-1-yl)propanoylamino]-ethyl]boronic acid]	++++ (50 ≤ Selectivity < 70)	50 to 500	< 50
COCc1ccc(C[C@H](NC(=O)CCN2CCCC2=O)B(O)O)cc1 [Compound 20, [(1R)-2-[4-(methoxymethyl)phenyl]-1-[3-(2-oxopyrrolidin-1-yl)propanoylamino]ethyl]boronic acid]	++ (10 ≤ Selectivity < 30)	500 to 5000	50 to 500
Cc1ccc(C[C@H](NC(=O)CN2CCCC2=O)B(O)O)cc1 [Compound 21, [(1R)-1-[[2-(2-oxopyrrolidin-1-yl)acetyl]amino]-2-(p-tolyl)ethyl]boronic acid]	++ (10 ≤ Selectivity < 30)	500 to 5000	50 to 500
Cc1ccc(C[C@H](NC(=O)CCN2CCCCS2(=O)=O)B(O)O)cc1 [Compound 22, [(1R)-1-[3-(1,1-dioxothiazinan-2-yl)propanoylamino]-2-(p-tolyl)ethyl]-boronic acid]	++ (10 ≤ Selectivity < 30)	50 to 500	< 50
Cc1ccc(C[C@H](NC(=O)CC[C@@H]2NC(=O)NC2=O)B(O)O)cc1 [Compound 23, [(1R)-1-[3-[(4S)-2,5-dioxoimidazolidin-4-yl]propanoylamino]-2-(p-tolyl)ethyl]boronic acid]	++ (10 ≤ Selectivity < 30)	500 to 5000	< 50
O=C(CCN1CCCCC1=O)N[C@@H](Cc1coc2ccccc12)B(O)O [Compound 24, [(1R)-2-(benzofuran-3-yl)-1-[3-(2-oxo-1-piperidyl)propanoylamino]-ethyl]boronic acid]	+++ (30 ≤ Selectivity < 50)	50 to 500	< 50
Cc1ccc(C[C@H](NC(=O)CCN2CCCCC2=O)B(O)O)cc1C [Compound 25, [(1R)-2-(3,4-dimethylphenyl)-1-[3-(2-oxo-1-piperidyl)propanoylamino]-ethyl]boronic acid]	+++++ (Selectivity ≥ 70)	500 to 5000	< 50
O=C(CCN1CCCCS1(=O)=O)N[C@@H](Cc1coc2ccccc12)B(O)O [Compound 26, [(1R)-2-(benzofuran-3-yl)-1-[3-(1,1-dioxothiazinan-2-yl)propanoylamino]ethyl]boronic acid]	+++ (30 ≤ Selectivity < 50)	50 to 500	< 50
CC1(C)CCC(=O)N1CCC(=O)N[C@@H](Cc1coc2ccccc12)B(O)O [Compound 27, [(1R)-2-(benzofuran-3-yl)-1-[3-(2,2-dimethyl-5-oxo-pyrrolidin-1-yl)propanoylamino]ethyl]boronic acid]	+++++ (Selectivity ≥ 70)	500 to 5000	< 50
